One data set has as its system P388 leukemia cells. On the set-up: method as in doi:10.1076/phbi.37.2.148.6082. Conditions: cited from earlier work.
Data set [1] relates to human colon adenocarcinoma (HT29). The data set is described as follows: MTT cell viability assay, HT29. The data set is classed as cell-based. Conditions: Homo sapiens, HT-29, 72 h; for IC80: 80% growth inhibition; for IC50: read-out: IC50. The text has this:
(§1) In this study, we employed the MTT (3-(4,5-dimethyl thiazol-2-yl)-2,5-diphenyltetrazolium bromide) colorimetric assay to evaluate the cytotoxic activity of selected abietanes (compounds 5, 7, 13, 17, and 19) against three tumor cell lines: human colon adenocarcinoma (HT29), human hepatocarcinoma (HepG2), and murine melanoma (B16–F10). The MTT assay relied on the conversion of MTT to formazan by viable cells, with the formazan concentration proportional to the number of viable cells. The concentrations required for 50 and 80% growth inhibition (IC50 and IC80) were determined for each compound.
(§2) The human colorectal adenocarcinoma cell line HT29 (ECACC no. 9172201; ATCC no. HTB-38), the human hepatocarcinoma cell line HepG2 (ECACC no. 85011430), the mouse melanoma cells B16–F10 (ATCC no. CRL-6475), and the murine monocyte/macrophage like RAW 264.7 cell line (ATCC no, TIB-71) were obtained from the cell bank of the University of Granada, Spain. The tumor cell lines were cultured in DMEM (Dulbecco’s modified Eagle’s medium) supplemented with 2 mM glutamine, 10% heat-inactivated FCS (fetal calf serum), and 50 μg/mL of gentamicin (for all cancer cell lines). The RAW 264.7 cell line was cultured in RPMI1640 medium, supplemented with 2 mM glutamine, 10% heat-inactivated FCS, and 50 μg/mL of gentamicin. All cell lines were incubated at 37 °C, in an atmosphere of 5% CO2 and 95% humidity. The culture media were changed every 48 h, and the confluent cultures were separated with a trypsin solution (0.25% EDTA). In all experiments, monolayer cells were grown to 80–90% confluence in sterile cell culture flasks.
(§3) The effects of the compounds on the cell viability were established using the MTT method (Sigma, St. Louis, MO, USA). The cytotoxicity of the compounds was assessed by measuring the absorbance of MTT dye staining of metabolically competent cells. The cells were cultivated in 96-well plates at 6.0 × 10^3 cells/mL for the HT29 and RAW 264.7 cell lines, at 5.0 × 10^3 cells/mL for B16–F10 cells, and 15.0 × 10^3 cells/mL for the HepG2 cell line, with a final volume of 200 μL per well being incubated with the different products (0–100 μg/mL). After 72 h, 100 μL of MTT solution (0.5 mg/mL) in 50% of PBS and 50% of the medium was added to each well. Following incubation for 1.5 h, formazan was resuspended in 100 μL of DMSO, and each concentration was tested in triplicate. The cell viability relative to the untreated control cells was determined by measuring the absorbance at 570 nm using an ELISA plate reader (Tecan Sunrise MR20–301, TECAN, Grödig, Austria).

Data set [2] deals with human hepatocarcinoma (HepG2). The data set is described as follows: MTT cell viability assay, HepG2. Type of data set: cell-based. Conditions: Homo sapiens; for IC80: 72 h, 80% growth inhibition; for IC50: HepG2, 72 h, read-out: IC50.
Text: as §1, §2, §3
(In general: Tetrazolium dyes change colour on reduction, which living cells bring about.)

The nature of data set [3]: RAW 264.7 cell viability (MTT). Conditions: mouse. The data set is classed as cell-based, murine. How it is done:
To evaluate the cytotoxic effects of the synthesized abietanes (5, 7, 13, 17, and 19) on RAW 264.7 monocyte/macrophage murine cells and to establish sub-cytotoxic concentrations for anti-inflammatory testing, we conducted cell viability assays using the MTT method. Each compound was tested at increasing concentration levels (0–100 μg/mL), and the IC50 values were determined by interpolation in the sigmoidal cytotoxicity curves (Figure 8). […] Additionally, sub-cytotoxic concentrations corresponding to ¾ IC50, ½ IC50, and ¼ IC50 were determined and selected for subsequent anti-inflammatory assays, ensuring that the observed effects were specifically attributed to the anti-inflammatory properties of the compounds rather than cytotoxicity. The human colorectal adenocarcinoma cell line HT29 (ECACC no. 9172201; ATCC no. HTB-38), the human hepatocarcinoma cell line HepG2 (ECACC no. 85011430), the mouse melanoma cells B16–F10 (ATCC no. CRL-6475), and the murine monocyte/macrophage like RAW 264.7 cell line (ATCC no, TIB-71) were obtained from the cell bank of the University of Granada, Spain. The tumor cell lines were cultured in DMEM (Dulbecco’s modified Eagle’s medium) supplemented with 2 mM glutamine, 10% heat-inactivated FCS (fetal calf serum), and 50 μg/mL of gentamicin (for all cancer cell lines). The RAW 264.7 cell line was cultured in RPMI1640 medium, supplemented with 2 mM glutamine, 10% heat-inactivated FCS, and 50 μg/mL of gentamicin. All cell lines were incubated at 37 °C, in an atmosphere of 5% CO2 and 95% humidity. The culture media were changed every 48 h, and the confluent cultures were separated with a trypsin solution (0.25% EDTA). In all experiments, monolayer cells were grown to 80–90% confluence in sterile cell culture flasks. The effects of the compounds on the cell viability were established using the MTT method (Sigma, St. Louis, MO, USA). The cytotoxicity of the compounds was assessed by measuring the absorbance of MTT dye staining of metabolically competent cells. The cells were cultivated in 96-well plates at 6.0 × 10^3 cells/mL for the HT29 and RAW 264.7 cell lines, at 5.0 × 10^3 cells/mL for B16–F10 cells, and 15.0 × 10^3 cells/mL for the HepG2 cell line, with a final volume of 200 μL per well being incubated with the different products (0–100 μg/mL). After 72 h, 100 μL of MTT solution (0.5 mg/mL) in 50% of PBS and 50% of the medium was added to each well. Following incubation for 1.5 h, formazan was resuspended in 100 μL of DMSO, and each concentration was tested in triplicate. The cell viability relative to the untreated control cells was determined by measuring the absorbance at 570 nm using an ELISA plate reader (Tecan Sunrise MR20–301, TECAN, Grödig, Austria).

Data set [4] concerns NO release in LPS-stimulated RAW 264.7 macrophage cells. The data set is described as follows: Inhibition of nitric oxide production (Griess nitrite assay) in LPS-activated RAW 264.7 macrophages. The data set is classed as cell-based, murine. Particulars: LPS-stimulated RAW 264.7, 48 h; for NO inhibition: ¾ IC50 concentration; for IC50: Mus musculus, RAW264.7. The method, then: To evaluate the anti-inflammatory activity of the rearranged abietanes (5, 7, 17, and 19) along with their precursor 13, we conducted experiments on RAW 264.7 macrophage cells, a well-known model for screening anti-inflammatory compounds. The macrophages were stimulated with LPS to induce the maximum release of nitric oxide (NO) during the inflammatory response. Subsequently, the different compounds were incubated with the cells at sub-cytotoxic concentrations for 48 h (Figure 9). Next, we determined the concentration of nitrites in the culture medium, which was proportional to the amount of NO release.
Nitrite production was analyzed using the Griess reaction method. The concentration of nitrite was used as an indication of nitric oxide (NO) production. RAW 264.7 cells were seeded at 6 × 10^4 cells/well in 24-well cell culture plates, supplemented with 10 μg/mL of lipopolysaccharide (LPS). […] The Griess reaction was conducted by mixing 150 μL of supernatant test samples or sodium nitrite standard (0–120 μM) with 25 μL of Griess reagent A (0.1% n-(1-naphthyl) ethylenediamine dihydrochloride) and 25 μL of Griess reagent B (1% sulfanilamide in 5% of phosphoric acid) in a 96-well plate. The mixture was incubated at room temperature for 15 min, after which the absorbance was measured at 540 nm using an ELISA plate reader (Tecan Sunrise MR20–301, TECAN, Grödig, Austria). To determine the concentration of nitrite in each sample supernatant, the absorbance was referenced to the nitrite standard curve. To determine the percentage of NO production, the increase between the negative control (untreated cells) and the positive control (cells only with 10 μg/mL of LPS) was assigned 100%.
For orientation: Nitrite, measured by Griess reagent, commonly stands in for NO production.

The test system of data set [5] is murine melanoma (B16–F10). The data set is described as follows: MTT cell viability assay, B16-F10. Type of data set: cell-based. Particulars: Mus musculus, 72 h; for IC80: 80% growth inhibition.
Text: as §1, §2, §3

In data set [6] the test system is human leukemia lymphoblastic NALM-6. Set-up: method as in PMID 16989306. Conditions: cited from earlier work.
Another data set has as its system human carcinoma KB cells. On the set-up: method as in doi:10.1076/phbi.37.1.17.6321. Particulars: cited from earlier work.
The test system of data set [7] is promyelocytic HL-60 cells. On the set-up: method as in PMID 16989306. Particulars: cited from earlier work.
Details of data set [8]: method as in PMID 29772301. Conditions: orthoquinones versus para-quinones; cell lines not given; read-out: cytotoxic activity; cited from earlier work.
The mark [9] stands for this setting: RAW 264.7 monocyte/macrophage cells, RAW 264.7, MTT, 0–100 μg/mL, read-out: IC50 (cytotoxicity).

Converted amounts (≈) assume the structure as drawn. Read-outs that look alike come from different tables or passages of the source.

As for `CC(C)=CCCc1c(C)ccc2c1C(=O)C(=O)C(C(C)C)=C2` [Compound 7, saprorthoquinone], the cytotoxicity entry with P388 leukemia cells is reported as “strong cytotoxicity”. For the same compound, the IC80 (usually the concentration needed for an effect of 80%) in data set [1] is 10.6 ± 0.28 µg/mL (≈ 35.8 µM); in [2] it was 29.12 ± 0.21 µg/mL (≈ 98.2 µM); in [5] it was 8.02 ± 0.52 µg/mL (≈ 27.1 µM). In addition, the IC50 in data set [1] stood at 7.82 ± 0.17 µg/mL (≈ 26.4 µM); in [2], 21.2 ± 2.26 µg/mL (≈ 71.4 µM); in data set [4], 1.3 ± 0.08 µg/mL (≈ 4.39 µM); in data set [5], 6.89 ± 0.37 µg/mL (≈ 23.2 µM). For the same compound, the IC50 at 72 h in data set [3] (setting [9]) came out at 2.81 ± 0.45 µg/mL (≈ 9.48 µM). Also, the NO inhibition in [4] came to 100%.
Take `CC(C)c1cc2c(c(O)c1O)C1=CC(=O)CC(C)(C)[C@@]1(C)C=C2` [Compound 17, pygmaeocin C]: the values for the IC80 in [1], in data set [2] and in [5] were 24.4 ± 2.65 µg/mL (≈ 78 µM), 73.5 ± 2.06 µg/mL (≈ 235 µM) and 26.6 ± 4.82 µg/mL (≈ 85.2 µM), respectively. Moreover, the IC50 in data set [1] came out at 15.3 ± 0.71 µg/mL (≈ 48.9 µM); in data set [2], 38.8 ± 1.55 µg/mL (≈ 124 µM); in data set [4], 1.73 ± 0.04 µg/mL (≈ 5.54 µM); in data set [5] it was 10.1 ± 1.81 µg/mL (≈ 32.4 µM). The same compound displayed an IC50 at 72 h in [3] of 6.27 ± 0.94 µg/mL (≈ 20.1 µM). In data set [4], this compound returned an NO inhibition of 91%.
Regarding `CC(C)C1=CC2=C(C(=O)C1=O)C1=CCCC(C)(C)[C@@]1(C)C=C2` [Compound 19, viridoquinone], the IC80 was determined as 74.7 ± 1.53 µg/mL (≈ 252 µM) in data set [1], 101 ± 3.47 µg/mL (≈ 339 µM) in data set [2] and 9.14 ± 0.38 µg/mL (≈ 30.8 µM) in data set [5]. For the same compound, the IC50 came out at 60.52 ± 0.28 µg/mL (≈ 204 µM) in data set [1], 76.3 ± 2.14 µg/mL (≈ 257 µM) in data set [2], 7.21 ± 0.9 µg/mL (≈ 24.3 µM) in [4] and 6.42 ± 0.35 µg/mL (≈ 21.7 µM) in data set [5]. Moreover, in data set [3] (setting [9]), the IC50 at 72 h was 9.29 ± 0.35 µg/mL (≈ 31.3 µM). This compound also yielded an NO inhibition in [4] of 100%.
In the case of `C=C(C)CCCc1c(C)ccc2c1C(=O)C(=O)C(C(C)C)=C2` [aethiopinone], the IC50 in [6] was 0.6 µg/mL (≈ 2.02 µM); in data set [7] it was 4.8 µg/mL (≈ 16.2 µM). In addition, the cytotoxic effect result in the data set on human carcinoma KB cells is “potent cytotoxic effect”.
As to aegyptinone A, the IC50 in [8] is 2.11 to 8.19 µM.
As to tebesinone B, the IC50 in data set [8] is 5.47 to 10.3 µM.

These data come from paper PMC10487843, “Evaluation of Anticancer and Anti-Inflammatory Activities of Some Synthetic Rearranged Abietanes” (International Journal of Molecular Sciences, 2023).
